Measurements: US8946262B2, “Methods of preventing and treating gastrointestinal dysfunction” (Adolor Corporation, priority 2003, dated 2015)

Experiments:
[1] = biological target: μ opioid receptors in the GI tract (Homo sapiens, UniProt P35372); assay: Free alvimopan plasma concentration after a 12 mg oral dose before surgery, compared with Ki; type: in vivo, patients
Procedure: A Practical Introduction to Structure, Mechanism, and Data Analysis, 2nd Edition, (New York: Wiley-VCH, 2000), page 88, the disclosure of which is incorporated herein by reference.
Twelve milligrams of alvimopan (two 6 mg capsules) was administered orally to patients about 120 minutes prior to surgery. The free alvimopan plasma concentration was measured for about 24 hours.

[2] = Plasma exposure (AUC (τ)) of I.V. alvimopan given for 4 days with loperamide; type: in vivo, healthy subjects; conditions: group mean
Procedure: Subjects were randomly assigned to receive one of the following five treatments: • Group 1: […] Study Assessments Serial blood samples were collected for the determination of concentrations of alvimopan and its amide hydrolysis metabolite in plasma. The appropriate dose was drawn into the delivery system, normal saline was added to bring the total volume to 6 mL, and the contents will be mixed thoroughly. Placebo for alvimopan I.V. was 6 mL of normal saline. […] The first eight subjects in each treatment group followed a full sampling schedule and the last four subjects followed a sparse sampling schedule. For the first eight subjects (full sampling schedule), blood samples was collected just prior to administration of alvimopan I.V. on Days 1 through 4 (four samples); and at 0.5, 1, 1.5, 2, 5, 10, 20, 30, and 60 minutes and at 2, 4, 6, 8, 10, 12, 16, 24, 48, 72, 96, 120, 144, and 168 hours after the end of the infusion of alvimopan I.V. on Day 4. This is a total of 27 samples per subject (135 mL per subject). For the last four subjects in each treatment group (sparse sampling schedule), blood was collected prior to administration of alvimopan I.V. on Days 1 through 4 (four samples), and immediately following the last infusion on Day 4. Subjects were randomized to have one sample collected during each of the following intervals, relative to the end of the infusion on Day 4: […]

GI transit = GI transit score (GITS) by transit of radio-opaque markers (SITZMARKS) in subjects given loperamide; type: in vivo, healthy subjects; conditions: for GI Score: x-ray Day 4, group mean, normal 255.56
Procedure: Subjects were randomly assigned to receive one of the following five treatments: • Group 1: […] Study Assessments Subjects were assessed for their pain at the I.V. infusion site using a categorical four-point verbal scale (i.e., no discomfort/pain, mild discomfort/pain, moderate pain, or severe pain). The Investigator also assessed certain characteristics (e.g., erythema) of the I.V. site (i.e., none, mild, moderate, or severe). Abdominal x-rays and x-rays of stool samples were performed to determine the location of the […] markers. Oral […] capsules were administered on Days 1, 2, and 3 at the same time that study medication is administered each day.

Solubility in water = type: physicochemical; conditions: except at low or high pH conditions
[3] = Group 3 (alvimopan 1 mg I.V. b.i.d. + loperamide 2 mg p.o. q.i.d.)
[4] = Group 4 (alvimopan 0.45 mg I.V. b.i.d. + loperamide 2 mg p.o. q.i.d.)
[5] = Group 5 (alvimopan 0.1 mg I.V. b.i.d. + loperamide 2 mg p.o. q.i.d.)

Chain of μ opioid receptors in the GI tract (P35372 whole entry): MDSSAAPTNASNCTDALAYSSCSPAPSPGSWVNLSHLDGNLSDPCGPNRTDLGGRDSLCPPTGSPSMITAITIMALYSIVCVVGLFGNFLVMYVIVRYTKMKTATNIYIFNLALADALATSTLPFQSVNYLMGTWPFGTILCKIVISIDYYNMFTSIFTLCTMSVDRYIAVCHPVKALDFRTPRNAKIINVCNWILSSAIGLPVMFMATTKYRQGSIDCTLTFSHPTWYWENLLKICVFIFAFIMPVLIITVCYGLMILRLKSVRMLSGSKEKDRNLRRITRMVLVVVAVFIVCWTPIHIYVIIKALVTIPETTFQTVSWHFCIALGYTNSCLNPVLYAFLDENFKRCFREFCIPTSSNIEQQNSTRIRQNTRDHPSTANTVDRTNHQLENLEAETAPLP

Maximum free plasma concentrations achieved relative to the Ki ([1]; single 12 mg oral dose, FIG. 1) [fold] | receptor occupancy at 12 mg ([1]; single 12 mg oral dose, read-out: estimated receptor occupancy) [%] | AUC (τ) of Alvimopan [2, 3] [ng·mL/h] | AUC (τ) of Alvimopan [2, 4] [ng·mL/h] | AUC (τ) of Alvimopan [2, 5] [ng·mL/h] | solubility in water (Solubility in water) | Compound | free plasma concentrations versus saturation of μ opioid receptors in the GI tract ([1]; single 12 mg oral dose (two 6 mg capsules), about 120 minutes prior to surgery, FIG. 1) | GI Score (GI transit; [3]) | GI score compared with Group 2 (loperamide + placebo) and normal (Group 1) (GI transit; Group 4) | GI Score (GI transit; [4]) | GI score compared with Group 2 (loperamide + placebo) and normal (Group 1) (GI transit; Group 5) | GI Score (GI transit; [5]) | GI Score (GI transit; Group 2: loperamide 2 mg p.o. q.i.d. + placebo for alvimopan I.V.)
11 | > 68 | 4.36 | 22.06 | 49.79 | low solubility in water | C[C@H]1CN(C[C@H](Cc2ccccc2)C(=O)NCC(=O)O)CC[C@@]1(C)c1cccc(O)c1 [alvimopan, [[(2S)-2-[[(3R,4R)-4-(3-hydroxyphenyl)-3,4-dimethylpiperidin-1-yl]methyl]-3-phenylpropanoyl]amino]acetic acid dihydrate] | sufficient to substantially saturate μ opioid receptors in the GI tract | 231 | statistically different from Group 2 | 274.62 | statistically different from Group 2 | 278.5 | 
 |  |  |  |  |  | CN(C)C(=O)C(CCN1CCC(O)(c2ccc(Cl)cc2)CC1)(c1ccccc1)c1ccccc1 [loperamide, reference compound] |  |  |  |  |  |  | 208.67
